Patent publication US11001590B2, “Pyrazolopyrimidine derivatives” (BAYER ANIMAL HEALTH GMBH, priority 2016, dated 2021)

Legend:
[1] = target: C. elegans Slo-1a (Caenorhabditis elegans, UniProt Q95V25); experiment: In vitro assay 1: C. elegans Slo-1a, action at a recombinant C. elegans CHO cell line (membrane potential measurement)
[2] = system: Haemonchus contortus; experiment: In vitro assay 6: Haemonchus contortus (HAEMCO), larval mortality
Protocol: In Vitro Assay 6: Haemonchus contortus (HAEMCO)
Solvent: dimethyl sulfoxide
Approximately 40 larvae of the red stomach worm (Haemonchus contortus) are transferred into a test tube containing compound solution.
After 5 days the percentage of larval mortality is recorded. 100% efficacy means all larvae are killed, 0% efficacy means no larvae are killed.

[3] = system: Litomosoides sigmodontis third-stage larvae; experiment: In vitro assay 7: Litomosoides sigmodontis L3 (LTMOSI), motility; details: 72 h, reduction of motility vs negative control, 72 h incubation
Protocol: In Vitro Assay 7: Litomosoides Siqmodontis L3 (LTMOSI)
10 Litomosoides sigmodontis third-stage larvae, which were freshly isolated from the pleural cavity of an infected rodent, were added to wells of a microtitre plate containing a nutrient medium and the test compound in DMSO. Compounds were tested in concentration-response assay in duplicate. Larvae exposed to DMSO and no test compounds were used as negative controls. Larvae were evaluated after 72 h of incubation with the compound. Efficacy was determined as the reduction of motility in comparison to the negative control. Based on the evaluation of a wide concentration range, concentration-response curves as well as ECso-values were calculated.

[4] = system: Dirofilaria immitis microfilariae; experiment: In vitro assay 3: Dirofilaria immitis microfilariae (DIROIM L1), motility; details: 72 h, reduction of motility vs negative control, 72 h incubation
[5] = system: Dirofilaria immitis third-stage larvae; experiment: In vitro assay 4: Dirofilaria immitis (DIROIM L4), motility of larvae; details: 72 h
[6] = system: Nippostrongylus brasiliensis; experiment: In vitro assay 2: Nippostrongylus brasiliensis (NIPOBR), acetylcholine esterase readout; details: adult worms, read-out: activity (reduction of AChE compared to negative control); for inhibition at 1 µg/mL: 1 μg/ml (1 ppm); for inhibition at 10 µg/mL: 10 μg/ml (10 ppm)
Protocol: In Vitro Assay 2: Nippostronqylus Brasiliensis (NIPOBR)
Adult Nippostrongylus brasiliensis were washed with saline buffer containing 100 U/ml penicillin, 0.1 mg/ml streptomycin and 2.5 μg/ml amphotericin B. Test compounds were dissolved in DMSO and worms were incubated in medium in a final concentration of 10 μg/ml (10 ppm) respectively 1 μg/ml (1 ppm). An aliquot of the medium was used to determine the acetylcholine esterase activity in comparison to a negative control. The principle of measuring acetylcholine esterase as readout for anthelmintic activity was described in Rapson et al (1986) and Rapson et al (1987).

[7] = log P by HPLC on reversed phase columns (Method L0; [a] acidic, [b] neutral range)
Protocol: Calibration was done with straight-chain alkan-2-ones (with 3 to 16 carbon atoms) with known log P values (measurement of log P values using retention times with linear interpolation between successive alkanones). Lambda-max-values were determined using UV-spectra from 200 nm to 400 nm and the peak values of the chromatographic signals.

[8] = system: Cooperia curticei; experiment: In vitro assay 5: Cooperia curticei (COOPCU), larval mortality; details: 120 h, read-out: activity (percentage of larval mortality)
Protocol: In Vitro Assay 5: Cooperia curticei (COOPCU)
Solvent: Dimethyl Sulfoxide
Approximately 40 nematode larvae (Cooperia curticei) are transferred into a test tube containing the compound solution.
After 5 days percentage of larval mortality is recorded. 100% efficacy means all larvae are killed; 0% efficacy means no larvae are killed.

Sequence of C. elegans Slo-1a (Q95V25 whole entry): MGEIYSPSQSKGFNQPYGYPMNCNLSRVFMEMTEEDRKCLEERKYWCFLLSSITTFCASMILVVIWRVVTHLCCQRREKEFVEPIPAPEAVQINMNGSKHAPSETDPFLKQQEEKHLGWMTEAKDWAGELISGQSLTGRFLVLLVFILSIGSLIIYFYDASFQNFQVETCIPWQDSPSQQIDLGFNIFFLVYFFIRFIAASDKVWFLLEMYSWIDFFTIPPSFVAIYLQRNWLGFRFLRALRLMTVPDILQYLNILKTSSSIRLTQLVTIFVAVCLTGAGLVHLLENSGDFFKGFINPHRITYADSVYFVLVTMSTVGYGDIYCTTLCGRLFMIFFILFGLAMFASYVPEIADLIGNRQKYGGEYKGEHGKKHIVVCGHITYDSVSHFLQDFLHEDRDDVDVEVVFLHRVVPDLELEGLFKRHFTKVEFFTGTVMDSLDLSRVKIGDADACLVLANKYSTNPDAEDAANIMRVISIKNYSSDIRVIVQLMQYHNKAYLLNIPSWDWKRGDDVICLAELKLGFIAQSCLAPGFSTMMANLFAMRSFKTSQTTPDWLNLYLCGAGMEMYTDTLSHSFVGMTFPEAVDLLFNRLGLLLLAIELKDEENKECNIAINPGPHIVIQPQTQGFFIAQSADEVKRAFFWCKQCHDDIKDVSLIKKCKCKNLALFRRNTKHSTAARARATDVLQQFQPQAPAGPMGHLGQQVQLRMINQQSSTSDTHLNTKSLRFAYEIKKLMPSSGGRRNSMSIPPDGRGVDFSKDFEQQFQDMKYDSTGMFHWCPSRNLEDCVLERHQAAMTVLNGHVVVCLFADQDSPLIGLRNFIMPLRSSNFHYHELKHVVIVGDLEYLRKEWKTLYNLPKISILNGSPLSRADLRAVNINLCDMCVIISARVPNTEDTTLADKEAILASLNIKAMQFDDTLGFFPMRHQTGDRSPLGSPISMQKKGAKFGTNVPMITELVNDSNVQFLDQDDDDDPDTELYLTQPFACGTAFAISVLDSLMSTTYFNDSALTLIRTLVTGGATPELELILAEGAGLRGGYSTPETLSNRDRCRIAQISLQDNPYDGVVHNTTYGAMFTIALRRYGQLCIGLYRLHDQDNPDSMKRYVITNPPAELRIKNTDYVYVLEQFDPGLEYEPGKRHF

## CCc1c(C(=O)N[C@H]2CCOc3ccccc32)cnc2c(-c3c(F)ccc(Cl)c3F)c(C)nn12 [Example 489]
[1]; CHO cells expressing C. elegans Slo-1a, voltage sensitive dye, FLIPR Tetra, negative decadic logarithm of EC50
  pE50: 8.8
[2]; application rate 20 ppm, after 5 days
  activity (percentage of larval mortality): 90%

## Cc1nn2c(C(C)C)c(C(=O)N[C@H]3CCOc4ccccc43)cnc2c1-c1c(F)cc(Cl)cc1F [Example 246]
[3]
  EC50: < 0.1 µg/mL
[1]
  EC50: 6.31 nM
[4]
  EC50: < 0.1 µg/mL
[5]
  EC50: < 0.1 µg/mL
[6]
  inhibition at 1 µg/mL: > 80%
  inhibition at 10 µg/mL: > 80%
[7]
  chromatographic logP: 4.82

## COc1cc(Cl)cc(-c2c(C)nn3c(C(C)C)c(C(=O)N[C@H]4CCOc5ccccc54)cnc23)c1 [Example 403]
[3]
  EC50: < 0.1 µg/mL
[1]
  EC50: 158 nM
[4]
  EC50: < 0.1 µg/mL
[5]
  EC50: < 0.1 µg/mL
[6]
  inhibition at 10 µg/mL: > 80%
[7]
  chromatographic logP: 4.96

## Cc1nn2c(C(C)C)c(C(=O)N[C@H]3CCOc4ccccc43)cnc2c1-c1cc(Cl)ccc1F [Example 256]
[3]
  EC50: < 0.1 µg/mL
[8]
  mortality at 20 ppm: 80%
[1]
  EC50: 2.51 nM
[4]
  EC50: < 0.1 µg/mL
[5]
  EC50: < 0.1 µg/mL
[2]; Haemonchus contortus, 120 h, read-out: activity (percentage of larval mortality)
  mortality at 20 ppm: 80%
[7]
  chromatographic logP: 4.87

## Cc1nn2c(C(C)C)c(C(=O)N[C@H]3CCOc4ccccc43)cnc2c1-c1ncc(Cl)cc1Cl [Example 208]
[3]
  EC50: < 0.1 µg/mL
[1]
  EC50: 1.58 nM
[4]
  EC50: < 0.1 µg/mL
[5]
  EC50: < 0.1 µg/mL
[6]
  inhibition at 1 µg/mL: > 80%
  inhibition at 10 µg/mL: > 80%
[7]
  chromatographic logP: 4.27

## Cc1nn2c(C(C)C)c(C(=O)N[C@H]3CCc4ccccc43)cnc2c1-c1cccc(N(C)C)c1 [Example 299]
[8]
  mortality at 20 ppm: 80%
[1]
  EC50: 15.8 nM
[4]
  EC50: < 0.1 µg/mL
[7]
  chromatographic logP: 3.9

## Cc1nn2c(C3CC3)c(C(=O)N[C@H]3CCc4ccccc43)cnc2c1-c1c(F)cccc1Cl [Example 442]
[3]
  EC50: < 0.1 µg/mL
[1]
  EC50: 2 nM
[4]
  EC50: < 0.1 µg/mL
[5]
  EC50: < 0.1 µg/mL
[6]
  inhibition at 10 µg/mL: > 80%
[7]
  chromatographic logP: 3.89

## Cc1nn2c(C(C)C)c(C(=O)N[C@H]3CCOc4ccccc43)cnc2c1-c1c(F)cc(F)cc1F [Example 236]
[3]
  EC50: < 0.1 µg/mL
[1]
  EC50: 2 nM
[4]
  EC50: < 1 µg/mL
[5]
  EC50: < 0.1 µg/mL
[6]
  inhibition at 1 µg/mL: > 80%
  inhibition at 10 µg/mL: > 80%
[7]
  chromatographic logP: 4.3

## Cc1nn2c(C(C)C)c(C(=O)N[C@H]3CCc4ccccc43)cnc2c1-c1cc(Cl)cc(C(F)(F)F)c1 [Example 317]
[3]
  EC50: < 0.1 µg/mL
[1]
  EC50: 15.8 nM
[4]
  EC50: < 1 µg/mL
[5]
  EC50: < 0.1 µg/mL
[6]
  inhibition at 10 µg/mL: > 80%
[7]
  chromatographic logP: 6.07

## Cc1nn2c(C(C)C)c(C(=O)N[C@H]3CCOc4ccccc43)cnc2c1-c1c(F)cccc1F [Example 96]
[3]
  EC50: < 0.1 µg/mL
[1]
  EC50: 3.98 nM
[4]
  EC50: < 0.1 µg/mL
[5]
  EC50: < 0.1 µg/mL
[6]
  inhibition at 10 µg/mL: > 80%
[7]
  chromatographic logP: 4.13

## Cc1nn2c(C(C)C)c(C(=O)N[C@H]3CCOc4ccccc43)cnc2c1-c1cccc(Cl)c1F [Example 189]
[3]
  EC50: < 0.1 µg/mL
[1]
  EC50: 1.26 nM
[4]
  EC50: < 0.1 µg/mL
[5]
  EC50: < 0.1 µg/mL
[6]
  inhibition at 10 µg/mL: > 80%
[7]
  chromatographic logP: 4.72

## Cc1nn2c(C(C)C)c(C(=O)N[C@H]3CCCc4ccccc43)cnc2c1-c1cc(Cl)c(F)c(Cl)c1 [Example 128]
[3]
  EC50: < 0.1 µg/mL
[1]
  EC50: 12.6 nM
[4]
  EC50: < 0.1 µg/mL
[5]
  EC50: < 0.1 µg/mL
[6]
  inhibition at 10 µg/mL: > 80%
[7]
  chromatographic logP: 6.26

## COc1ccc(F)c(-c2c(C)nn3c(C(C)C)c(C(=O)N[C@H]4CCOc5ccccc54)cnc23)c1F [Example 232]
[3]
  EC50: < 0.1 µg/mL
[8]
  mortality at 20 ppm: 80%
[1]
  EC50: 5.01 nM
[4]
  EC50: < 1 µg/mL
[5]
  EC50: < 0.1 µg/mL
[6]
  inhibition at 10 µg/mL: > 80%
[7]
  chromatographic logP: 4.04

## Cc1nn2c(C(C)C)c(C(=O)N[C@H]3CCOc4ccccc43)cnc2c1-c1ccc(F)c(F)c1F [Example 166]
[3]
  EC50: < 0.1 µg/mL
[1]
  EC50: 1.58 nM
[4]
  EC50: < 0.1 µg/mL
[5]
  EC50: < 0.1 µg/mL
[6]
  inhibition at 10 µg/mL: > 80%
[7]
  chromatographic logP: 4.54

## Cc1nn2c(C(C)C)c(C(=O)N[C@H]3CCOc4ccccc43)cnc2c1-c1cccc(F)c1F [Example 136]
[3]
  EC50: < 0.1 µg/mL
[1]
  EC50: 6.31 nM
[4]
  EC50: < 0.1 µg/mL
[5]
  EC50: < 0.1 µg/mL
[6]
  inhibition at 1 µg/mL: > 80%
  inhibition at 10 µg/mL: > 80%
[7]
  chromatographic logP: 4.34
